Assay results reported in article PMC12263422, “Cryo-EM structure of the human THIK-1 K2P K^+ channel reveals a lower Y gate regulated by lipids and anesthetics” (Nature Structural & Molecular Biology, 2025).
“And” between values parts separate entries of the source, which are not always exact repeats. Equal values may be shown once. Values belong to the molecule of their own block, whether it stands above or below them.

Molecular target: T1, THIK-1 T237A (Homo sapiens, UniProt Q9HB14, T237A)
T1 construct: expressed in transfected cells; host or cells: Xenopus oocytes (mRNA injection)
T1 sequence (Q9HB14 1-408 T237A): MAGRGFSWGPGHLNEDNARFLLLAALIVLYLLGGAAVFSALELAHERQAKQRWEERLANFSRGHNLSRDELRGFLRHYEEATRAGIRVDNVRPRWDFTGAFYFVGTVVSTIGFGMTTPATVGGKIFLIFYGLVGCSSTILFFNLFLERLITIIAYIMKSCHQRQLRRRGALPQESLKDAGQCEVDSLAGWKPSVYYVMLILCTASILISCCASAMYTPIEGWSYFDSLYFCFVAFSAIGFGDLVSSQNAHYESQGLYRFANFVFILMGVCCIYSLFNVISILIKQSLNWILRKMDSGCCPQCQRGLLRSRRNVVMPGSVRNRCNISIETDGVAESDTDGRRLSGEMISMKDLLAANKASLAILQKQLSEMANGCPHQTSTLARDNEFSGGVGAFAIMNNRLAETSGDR
Experiment: Inside-out excised patch recordings, oocytes, THIK-1 T237A mutant
Format: cell-based
Text: Human K2P13.1 THIK-1 (GenBank accession number: NM_022054) and human K2P12.1 THIK-2 (NM_022055.1) were used in this study. For functional expression studies, the respective K^+ channel subtype coding sequences were subcloned into the oocyte expression vector pSGEM or the dual-purpose expression vector pFAW[41] and verified by sequencing. All mutant channels were obtained by site-directed mutagenesis and verified by sequencing. To increase surface expression and macroscopic currents, measurements of THIK-2 channels used a mutated ER retention motif, (R11A R12A R14A R15A R16A; THIK-2*)[20]. Vector DNA was linearized with NheI or MluI, and mRNA was synthesized in vitro using the SP6 or T7 AmpliCap Max High Yield Message Maker Kit (Cellscript, USA) or HiScribe T7 ARCA mRNA Kit (New England Biolabs).
Two-electrode voltage–clamp (TEVC) studies were performed in Xenopus oocytes. All animal use conformed to the Guide for the Care and Use of Laboratory Animals (NIH Publication 85–23), and all experiments using Xenopus toads were approved by the local ethics panels. Oocytes were stored at 17 °C in ND96 recording solution composed of (in mM): 96 NaCl, 2 KCl, 1.8 CaCl2, 1 MgCl2, 5 HEPES (pH 7.5 adjusted with NaOH and HCl), supplemented with Na-pyruvate (275 mg L^–1), theophylline (90 mg L^–1) and gentamicin (50 mg L^–1). Oocytes were injected with 1 ng mRNA for WT or mutant channels, and were incubated for 24–48 h at 17 °C. Two-electrode voltage clamp recordings were then performed as previously described[42],[43]. For macroscopic patch–clamp measurements, oocytes were obtained as described above incubated at 17 °C in a solution containing (mM): 54 NaCl, 30 KCl, 2.4 NaHCO3, 0.82 MgSO4 ×7 H2O, 0.41 CaCl2, 0.33 Ca(NO3)2 ×4 H2O and 7.5 TRIS (pH 7.4 adjusted with NaOH and HCl) for 1–4 days before use. Excised patch recordings in inside-out configuration conditions were performed at room temperature. Patch pipettes were made from thick-walled borosilicate glass GB 200TF-8P (Science Products), had resistances of 0.2–0.5 MΩ (tip diameter, 10–25 µm) and filled with a pipette solution (in mM): 120 KCl, 10 HEPES and 3.6 CaCl2 (pH 7.4 adjusted with KOH and HCl). Intracellular bath solutions and compounds were applied to the cytoplasmic side of excised patches for the various K^+ channels through a gravity flow multi-barrel pipette system. The intracellular solution had the following composition (in mM): 120 KCl, 10 HEPES, 2 EGTA and 1 pyrophosphate (pH adjusted with KOH and HCl). Currents were recorded with an EPC10 amplifier (HEKA Electronics) and sampled at 10 kHz or higher, with filtering set to 3 kHz (–3 dB) or higher, as appropriate for sampling rate. For measurements of GPCR activation, whole-cell currents were recorded for THIK-1 in transiently transfected HEK-293 cells. Cells were stimulated by a ramp protocol between −100 and +60 mV (holding potential, −80 mV). The pipette solution was composed of (in mM): 140 KCl, 2 MgCl2, 1 CaCl2, 2.5 EGTA and 10 HEPES (pH 7.3 adjusted with KOH and HCl). The extracellular bath solution had the following composition (in mM): 135 NaCl, 5 KCl, 2 MgCl2, 2 CaCl2, 10 glucose and 10 HEPES pH (pH 7.3 adjusted with NaOH and HCl). Oxotremorine M (Oxo-M) was added to extracellular bath solution to obtain the final concentration. Single-channel currents were recorded with an Axopatch 200B amplifier through a Digidata 1440A digitizer (Molecular Devices). Data were filtered at 2 kHz and recorded at a 200-kHz sampling rate with the program Clampex (Molecular Devices). Pipette solution and bath solution for cell-attached recordings contained (in mM): 140 KCl, 2 MgCl2, 1 CaCl2 and 10 HEPES (pH 7.4 adjusted with KOH and HCl). For inside-out recordings, the bath solution contained (in mM): 140 KCl, 2 MgCl2, 1 CaCl2 and 10 HEPES (pH 7.2 adjusted with KOH and HCl). All experiments were conducted at room temperature. […]

- inhibition at 240 µM (0.24 mM Sevoflurane, T237A, mean): 10%
- inhibition at 23 µM (THIK-1 T237A, 0.023 mM sevoflurane): 2.46%
- inhibition at 47 µM (THIK-1 T237A, 0.047 mM sevoflurane): 5.91%
- inhibition at 468 µM (THIK-1 T237A, 0.468 mM sevoflurane): 21.7%
- inhibition at 2340 µM (THIK-1 T237A, 2.34 mM sevoflurane): 65.6%
Structure (SMILES): FCOC(C(F)(F)F)C(F)(F)F [Sevoflurane, sevoflurane]
- Inhibition (%) (0.24 mM Sevoflurane, T237A, individual recordings): 3.46% and 13.30% and 10.43% and 14.31% and 9.40% and 9.31%

Structure (SMILES): CCCCC[N+](CCCCC)(CCCCC)CCCCC [TPenA, tetrapentylammonium]
- IC50 (TPenA IC50, T237A mutant): 751 ± 69 µM
- IC50 (TPenA IC50, THIK-1 T237A, individual recordings): 1130 µM and 808 µM and 597 µM and 535 µM and 580 µM and 782 µM and 1030 µM and 536 µM and 917 µM and 590 µM
- IC50 (TPenA IC50, THIK-1 T237A, mean): 751 µM

- inhibition at 242 µM (isoflurane 0.242 mM, THIK-1 T237A): 3.32%
- inhibition at 485 µM (isoflurane 0.485 mM, THIK-1 T237A): 6.3%
- inhibition at 2420 µM (isoflurane 2.42 mM, THIK-1 T237A): 10.5%
- inhibition at 4850 µM (isoflurane 4.85 mM, THIK-1 T237A): 14.9%
- inhibition at 24200 µM (isoflurane 24.2 mM, THIK-1 T237A): 41.2%
Structure (SMILES): FC(F)OC(Cl)C(F)(F)F (stereo not drawn) [Isoflurane, isoflurane]
- Inhibition (%) (4.9 mM Isoflurane, T237A, individual recordings): 17.406% and 8.395% and 11.371% and 16.439% and 18.927% and 20.492% and 11.299%

- inhibition at 152 µM (halothane 0.152 mM, THIK-1 T237A): 2.14%
- inhibition at 304 µM (halothane 0.304 mM, THIK-1 T237A): 5.74%
- inhibition at 1520 µM (halothane 1.52 mM, THIK-1 T237A): 14%
- inhibition at 3040 µM (halothane 3.04 mM, THIK-1 T237A): 21.8%
- inhibition at 15200 µM (halothane 15.2 mM, THIK-1 T237A): 61.5%
Structure (SMILES): FC(F)(F)C(Cl)Br (stereo not drawn) [halothane]
- Inhibition (%) (3.0 mM halothane, T237A, individual recordings): 33.289% and 24.219% and 32.586% and 20.723% and 17.184% and 21.968% and 14.425% and 17.317% and 20.857% and 12.818% and 13.953% and 26.198% and 19.691% and 2.253% and 19.772% and 18.717% and 25.052% and 20.656% and 33.770% and 18.734% and 25.692% and 28.421% and 33.333%
